ChEMBL document CHEMBL2016532, “Novel potent dual inhibitors of CK2 and Pim kinases with antiproliferative activity against cancer cells” (Bioorg Med Chem Lett, 2012)

Assays:
[1] = biological target: Serine/threonine-protein kinase pim-1 (Homo sapiens, UniProt P11309); test: Inhibition of human recombinant Pim1 using RSRHSSYPAGT as substrate and 30 uM ATP by radiometric assay
[2] = biological target: Serine/threonine-protein kinase pim-2 (Homo sapiens, UniProt Q9P1W9); test: Inhibition of human recombinant Pim2 using RSRHSSYPAGT as substrate and 5 uM ATP by radiometric assay
Serine/threonine-protein kinase pim-2, sequence (Q9P1W9 whole entry): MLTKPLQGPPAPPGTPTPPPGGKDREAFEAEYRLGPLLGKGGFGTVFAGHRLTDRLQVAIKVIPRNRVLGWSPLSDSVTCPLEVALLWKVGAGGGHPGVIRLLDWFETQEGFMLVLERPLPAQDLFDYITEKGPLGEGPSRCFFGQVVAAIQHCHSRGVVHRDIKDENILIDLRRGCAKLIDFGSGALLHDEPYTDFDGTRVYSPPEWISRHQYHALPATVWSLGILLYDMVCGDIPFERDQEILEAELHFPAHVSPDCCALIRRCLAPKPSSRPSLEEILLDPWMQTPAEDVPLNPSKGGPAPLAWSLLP

[3] = biological target: Casein kinase II alpha/beta (Homo sapiens, UniProt P68400); type: protein-complex assay
Casein kinase II alpha/beta, sequence (P67870 whole entry): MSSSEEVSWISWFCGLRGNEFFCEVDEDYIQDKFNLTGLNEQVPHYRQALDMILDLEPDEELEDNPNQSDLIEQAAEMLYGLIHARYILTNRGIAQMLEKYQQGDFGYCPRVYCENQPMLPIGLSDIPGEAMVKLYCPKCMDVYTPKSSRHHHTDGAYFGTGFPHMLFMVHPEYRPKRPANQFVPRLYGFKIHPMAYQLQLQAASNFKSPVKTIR
Casein kinase II alpha/beta, sequence (P68400 whole entry): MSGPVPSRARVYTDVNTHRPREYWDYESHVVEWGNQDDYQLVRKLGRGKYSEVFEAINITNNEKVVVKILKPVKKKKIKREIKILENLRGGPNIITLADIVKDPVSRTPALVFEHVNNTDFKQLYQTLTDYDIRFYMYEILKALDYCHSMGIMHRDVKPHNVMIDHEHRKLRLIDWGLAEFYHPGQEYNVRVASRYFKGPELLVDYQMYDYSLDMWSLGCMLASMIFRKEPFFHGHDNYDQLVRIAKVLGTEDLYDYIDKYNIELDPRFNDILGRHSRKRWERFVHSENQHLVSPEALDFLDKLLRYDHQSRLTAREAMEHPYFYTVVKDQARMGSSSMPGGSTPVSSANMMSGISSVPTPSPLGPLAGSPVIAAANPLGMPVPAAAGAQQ

BXPC-3 = test: Antiproliferative activity against human BxPC3 cells after 48 hrs by alamar blue assay; type: functional, cell-based; conditions: BXPC-3, 48 h
[4] = Antiproliferative activity against human SUM149PT cells after 48 hrs by alamar blue assay; type: functional, cell-based
K562 = test: Antiproliferative activity against human K562 cells after 48 hrs by alamar blue assay; type: functional, cell-based; conditions: K562, 48 h
MV4-11 = test: Antiproliferative activity against human MV411 cells after 48 hrs by alamar blue assay; type: functional, cell-based; conditions: MV4-11, 48 h
[5] = tested on: MDA-MB-453 (Homo sapiens); test: Antiproliferative activity against human MDA-MB-453 cells after 48 hrs by alamar blue assay; conditions: MDA-MB-453, 48 h
[6] = biological target: T1, Receptor-type tyrosine-protein kinase FLT3 (Homo sapiens, UniProt P36888); test: Inhibition of Flt3
T1 sequence (P36888 whole entry): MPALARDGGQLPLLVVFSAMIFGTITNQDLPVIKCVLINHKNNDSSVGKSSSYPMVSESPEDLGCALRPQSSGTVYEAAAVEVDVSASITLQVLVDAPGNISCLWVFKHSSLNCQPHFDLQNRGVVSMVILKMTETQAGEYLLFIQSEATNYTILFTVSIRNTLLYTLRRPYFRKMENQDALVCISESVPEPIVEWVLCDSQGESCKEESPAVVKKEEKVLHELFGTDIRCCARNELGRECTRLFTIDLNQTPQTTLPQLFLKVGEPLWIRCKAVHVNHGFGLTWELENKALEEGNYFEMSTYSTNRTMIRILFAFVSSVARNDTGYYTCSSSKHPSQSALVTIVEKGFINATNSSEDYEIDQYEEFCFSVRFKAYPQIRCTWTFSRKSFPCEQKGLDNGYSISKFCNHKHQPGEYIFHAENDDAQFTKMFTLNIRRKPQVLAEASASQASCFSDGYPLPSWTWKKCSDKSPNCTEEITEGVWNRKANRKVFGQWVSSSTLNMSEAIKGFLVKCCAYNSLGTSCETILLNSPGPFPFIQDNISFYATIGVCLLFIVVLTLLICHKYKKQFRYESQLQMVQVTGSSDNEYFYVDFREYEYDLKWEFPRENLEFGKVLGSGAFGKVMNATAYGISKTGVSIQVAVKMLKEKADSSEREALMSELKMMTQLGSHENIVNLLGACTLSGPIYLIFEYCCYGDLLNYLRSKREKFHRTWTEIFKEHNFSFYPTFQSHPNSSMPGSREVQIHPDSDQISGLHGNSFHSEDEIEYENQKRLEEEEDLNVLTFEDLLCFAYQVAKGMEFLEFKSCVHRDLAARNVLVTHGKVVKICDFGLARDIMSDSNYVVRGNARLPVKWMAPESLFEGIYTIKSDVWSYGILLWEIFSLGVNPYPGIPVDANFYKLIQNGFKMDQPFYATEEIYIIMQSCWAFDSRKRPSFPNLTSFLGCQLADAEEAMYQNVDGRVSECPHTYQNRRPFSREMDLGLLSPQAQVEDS

Serine/threonine-protein kinase pim-1, sequence (P11309 whole entry): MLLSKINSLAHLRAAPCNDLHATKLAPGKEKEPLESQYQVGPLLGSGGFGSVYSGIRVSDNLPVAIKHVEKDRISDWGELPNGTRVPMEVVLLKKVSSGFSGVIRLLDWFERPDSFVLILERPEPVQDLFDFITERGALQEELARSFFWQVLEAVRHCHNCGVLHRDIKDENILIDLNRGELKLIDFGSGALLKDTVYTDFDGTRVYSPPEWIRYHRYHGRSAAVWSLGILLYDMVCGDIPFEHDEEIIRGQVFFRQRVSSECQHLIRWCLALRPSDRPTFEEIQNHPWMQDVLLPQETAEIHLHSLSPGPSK

Row | Compound | IC50 [1] | IC50 [2] | IC50 [3] | EC50 (BXPC-3) | EC50 [4] | EC50 (K562) | EC50 (MV4-11) | EC50 [5] | IC50 [6]
1 | c1ccc(Nc2nc3c(-c4nnc[nH]4)cccc3c3sccc23)cc1 | 0.004 µM | 0.015 µM | 0.01 µM | > 30 µM | 7 µM | 6.1 µM | 2 µM | 7.8 µM | 
2 | Clc1ccccc1Nc1nc2c(-c3nnc[nH]3)cccc2c2sccc12 | 0.003 µM | 0.002 µM | 0.009 µM | 11.7 µM | 4.4 µM | 3.6 µM | 0.5 µM | 2.6 µM | > 10 µM
3 | Fc1ccccc1Nc1nc2c(-c3nnc[nH]3)cccc2c2sccc12 | 0.002 µM | 0.002 µM | 0.004 µM | > 30 µM | 9.5 µM | 3.6 µM | 0.6 µM | 7.1 µM | 
4 | c1ccc(Nc2nc3c(-c4nnc[nH]4)cccc3c3cscc23)cc1 | 0.027 µM | 0.017 µM | 0.01 µM |  |  |  |  |  | 
5 | Clc1ccccc1Nc1nc2c(-c3nnc[nH]3)cccc2c2cscc12 | 0.007 µM | 0.008 µM | 0.02 µM | 4.5 µM | 2.6 µM | > 10 µM | 0.6 µM | 4.9 µM | > 10 µM
6 | c1ccc(Nc2nc3c(-c4nnc[nH]4)cccc3c3ccsc23)cc1 | 0.016 µM | 0.014 µM | 0.03 µM |  |  |  |  |  | 
7 | Clc1ccccc1Nc1nc2c(-c3nnc[nH]3)cccc2c2ccsc12 | 0.004 µM | 0.006 µM | 0.021 µM | 16.1 µM | 2.6 µM | > 10 µM | 3.2 µM | 1.3 µM | > 10 µM
8 | Clc1ccccc1Nc1nc2c(-c3nnc[nH]3)cccc2c2scnc12 | 0.008 µM | 0.009 µM | 0.039 µM | 2.8 µM | 12.6 µM | > 10 µM | 4.7 µM | 2 µM | 
9 | c1ccc(Nc2nc3c(-c4nnc[nH]4)cccc3n3cccc23)cc1 | 0.014 µM | 0.03 µM | 0.101 µM |  |  |  |  |  | 
10 | Clc1ccccc1Nc1nc2c(-c3nnc[nH]3)cccc2n2cccc12 | 0.012 µM | 0.041 µM | 0.089 µM |  |  |  |  |  | > 10 µM
11 | Fc1ccccc1Nc1nc2c(-c3nnc[nH]3)cccc2n2cccc12 | 0.008 µM | 0.02 µM | 0.089 µM | > 30 µM | 22.8 µM | 8.2 µM | 3.7 µM | 28.4 µM | 
12 | Fc1ccccc1Nc1nc2c(-c3nnc[nH]3)cccc2n2cncc12 | 0.038 µM | 0.043 µM | 0.035 µM | 15 µM | 5.4 µM | 5.4 µM | 0.1 µM | 3.1 µM | 
13 | c1cc(-c2nnc[nH]2)c2nc(NC3CC3)c3ccsc3c2c1 | 0.015 µM | 0.025 µM | 0.062 µM |  |  |  |  |  | 
14 | c1cc(-c2nnc[nH]2)c2nc(N3CCOCC3)c3ccsc3c2c1 | 0.035 µM | 0.01 µM | 0.128 µM |  |  |  |  |  | 
15 | c1ccc(CNc2nc3c(-c4nnc[nH]4)cccc3c3sccc23)cc1 | 0.004 µM | 0.052 µM | 0.048 µM |  |  |  |  |  | 
16 | c1cncc(Nc2nc3c(-c4nnc[nH]4)cccc3c3sccc23)c1 | 0.017 µM | 0.022 µM | 0.076 µM |  |  |  |  |  | 
17 | c1cc(-c2nnc[nH]2)c2nc(Nc3ccncc3)c3ccsc3c2c1 | 0.091 µM | 0.068 µM | 0.216 µM |  |  |  |  |  | 
18 | Clc1cccc(Nc2nc3c(-c4nnc[nH]4)cccc3c3sccc23)c1 | 0.006 µM | 0.006 µM | 0.015 µM |  |  |  |  |  | 
19 | Clc1ccc(Nc2nc3c(-c4nnc[nH]4)cccc3c3sccc23)cc1 | 0.014 µM | 0.086 µM | 0.033 µM |  |  |  |  |  | 
20 | Oc1ccc(Nc2nc3c(-c4nnc[nH]4)cccc3c3sccc23)c(Cl)c1 | 0.014 µM | 0.004 µM | 0.01 µM |  |  |  |  |  | 

Row | Compound | IC50 [1] | IC50 [2] | IC50 [3] | EC50 (BXPC-3) | EC50 [4] | EC50 (K562) | EC50 (MV4-11) | EC50 [5] | IC50 [6]
21 | Fc1ccc(Nc2nc3c(-c4nnc[nH]4)cccc3c3sccc23)c(Cl)c1 | 0.009 µM | 0.009 µM | 0.052 µM |  |  |  |  |  | 
22 | COc1cccc(Nc2nc3c(-c4nnc[nH]4)cccc3c3sccc23)c1Cl | 0.005 µM | 0.021 µM | 0.017 µM |  |  |  |  |  | 
23 | Fc1cc(F)cc(Nc2nc3c(-c4nnc[nH]4)cccc3c3sccc23)c1 | 0.009 µM | 0.024 µM | 0.151 µM |  |  |  |  |  | 
24 | FC(F)(F)Oc1ccc(Nc2nc3c(-c4nnc[nH]4)cccc3c3sccc23)c(Cl)c1 | 0.064 µM | 0.076 µM | 0.075 µM |  |  |  |  |  | 
25 | Fc1cccc(Nc2nc3c(-c4nnc[nH]4)cccc3c3sccc23)c1 | 0.003 µM | 0.005 µM | 0.007 µM | 9.1 µM | 8.1 µM | > 10 µM | 4.6 µM | 2.6 µM | 
26 | Fc1ccc(Nc2nc3c(-c4nnc[nH]4)cccc3c3sccc23)cc1 | 0.004 µM | 0.007 µM | 0.007 µM | > 30 µM | > 30 µM | > 10 µM | > 10 µM | 6.6 µM | 
27 | Fc1ccc(Nc2nc3c(-c4nnc[nH]4)cccc3c3sccc23)c(F)c1 | 0.002 µM | 0.002 µM | 0.011 µM | > 30 µM | > 30 µM | 4.8 µM | 1.7 µM | 4.6 µM | 
28 | Fc1ccc(Nc2nc3c(-c4nnc[nH]4)cccc3c3sccc23)cc1F | 0.009 µM | 0.015 µM | 0.077 µM |  |  |  |  |  | 
29 | COc1ccccc1Nc1nc2c(-c3nnc[nH]3)cccc2c2sccc12 | 0.007 µM | 0.049 µM | 0.084 µM |  |  |  |  |  | 
30 | COc1cccc(Nc2nc3c(-c4nnc[nH]4)cccc3c3sccc23)c1 | 0.011 µM | 0.028 µM | 0.011 µM |  |  |  |  |  | 
31 | COc1ccc(Nc2nc3c(-c4nnc[nH]4)cccc3c3sccc23)cc1 | 0.004 µM | 0.006 µM | 0.005 µM | 28 µM | 8.2 µM | 7.2 µM | 6.5 µM | 7.4 µM | 
32 | CN(C)CCOc1ccc(Nc2nc3c(-c4nnc[nH]4)cccc3c3sccc23)cc1 | 0.016 µM | 0.034 µM | 0.136 µM |  |  |  |  |  | 
33 | FC(F)(F)c1cccc(Nc2nc3c(-c4nnc[nH]4)cccc3c3sccc23)c1 | 0.016 µM | 0.052 µM | 0.024 µM |  |  |  |  |  | 
34 | N#Cc1cccc(Nc2nc3c(-c4nnc[nH]4)cccc3c3sccc23)c1 | 0.01 µM | 0.012 µM | 0.126 µM |  |  |  |  |  | 
35 | C#Cc1cccc(Nc2nc3c(-c4nnc[nH]4)cccc3c3sccc23)c1 | 0.006 µM | 0.005 µM | 0.002 µM | 24.6 µM | 9.6 µM | 6.7 µM | 5.4 µM | 9.3 µM | 
36 | NC(=O)c1ccc(Nc2nc3c(-c4nnc[nH]4)cccc3c3sccc23)cc1 | 0.017 µM | 0.017 µM | 0.139 µM |  |  |  |  |  | 
37 | O=C(O)c1cccc2c1nc(Nc1ccccc1Cl)c1ccsc12 | 0.069 µM | 0.121 µM | 0.139 µM |  |  |  |  |  | 
38 | NC(=O)c1cccc2c1nc(Nc1ccccc1Cl)c1ccsc12 | 0.005 µM | 0.012 µM | 0.022 µM |  |  |  |  |  | 
39 | CNC(=O)c1cccc2c1nc(Nc1ccccc1Cl)c1ccsc12 | 0.005 µM | 0.028 µM | 0.048 µM |  |  |  |  |  | 5.3 µM
40 | Cc1cc2c(Nc3ccccc3F)nc3c(-c4nnc[nH]4)cccc3c2s1 | 0.015 µM | 0.006 µM | 0.026 µM |  |  |  |  |  | 
